# Legend:
# [1] = tested on: ischemia-induced cerebral edema (MCAO); details: cited from earlier work
# [2] = tested on: cerebral ischemia (MCAO model); assay: Middle cerebral artery occlusion (MCAO) model, 1 h ischemia and 24 h reperfusion; assay type: in vivo, mice; details: 60 mg/kg intravenous single bolus 10 min before reperfusion, 1 h ischemia
# Text: Anatomical measures of infarct size, brain volume, neurological assessments, and mortality rate can be used to assess the consequences of middle cerebral artery occlusion (MCAO) model in mice. The rodent MCAO model, an accepted model of cerebral ischemia and reperfusion (Clark et al., 1997), uses a silicone-coated filament to promote cerebral artery occlusion (Migliati et al., 2001). An innovative method to measure effective occlusion in real time is by laser Doppler monitoring of blood flow rate
# Typical procedure for MCAO model in mice: Wild-type C57BL/6J male mice at 9-11 weeks old are anesthetized, and cerebral blood flow is recorded as baseline using laser Doppler. The monofilament is placed in the internal common carotid and advanced to the ostia of the middle cerebral artery. […] After 24 h, animals are evaluated for neurological, behavioral, and general deficits, and then sacrificed for anatomical analysis of the infarcted and contralateral control hemispheres. […]
# FIG. 6 illustrates cerebral edema and infarct size in mice subjected to one hour of ischemia and 24 hours of reperfusion, with and without bumetanide (60 mg/kg) administered intravenously in a single bolus at 10 min before reperfusion. Stained with 2% TTC, the infarcted area is white; areas are analyzed using morphometric software by researchers blinded to the treatment group.
smiles,measurement,setting,value
CCCCNc1cc(C(=O)O)cc(S(N)(=O)=O)c1Oc1ccccc1 [bumetanide],ischemia-induced cerebral edema,"[1]; 30-mg/kg dose, rats, MCAO",effectively reduced ischemia-induced cerebral edema
same,"edema formation, magnetic resonance diffusion-weighted imaging","[1]; intravenous, first 3 hours of MCAO-induced cerebral ischemia",reduced edema formation
same,lowest effective dose,"[1]; rats, MCAO, reduction of edema",7.6 mg/kg
same,"cerebral edema and infarct size, statistical significance (p<0.06)",[2],"does not meet criteria, but indicates promise"

# Reference: US9248131B2, “Aquaporin modulators and methods of using them for the treatment of edema and fluid imbalance” (THE ARIZONA BOARD OF REGENTS ON BEHALF OF THE UNIVERSITY OF …, priority 2006, dated 2016)
